Source: patent publication US8614327B2 (Vertex Pharmaceuticals Incorporated, priority 2004, dated 2013)

Molecular target: T1, ΔF508-CFTR (Homo sapiens, UniProt P13569, DEL508-508)
T1 construct: expressed in transfected cells
Experiment: Membrane potential optical (FRET/VIPR) assay, identification of potentiator compounds
Format: cell-based
Conditions: Table 3, assay not given; for % Activity: relative efficacy
Method in brief: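 Double-addition potentiator screen: compound delivered in gluconate-substituted Cl^--free medium, membrane potential followed via CC2-DMPE/DiSBAC2(3) FRET on VIPR. Cells were ΔF508-CFTR-expressing NIH3T3 mouse fibroblasts, held 2 h at 37° C. then 24 h at 27° C. before assay.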

T1 sequence (P13569 with tags, fused parts or gaps DEL508-508): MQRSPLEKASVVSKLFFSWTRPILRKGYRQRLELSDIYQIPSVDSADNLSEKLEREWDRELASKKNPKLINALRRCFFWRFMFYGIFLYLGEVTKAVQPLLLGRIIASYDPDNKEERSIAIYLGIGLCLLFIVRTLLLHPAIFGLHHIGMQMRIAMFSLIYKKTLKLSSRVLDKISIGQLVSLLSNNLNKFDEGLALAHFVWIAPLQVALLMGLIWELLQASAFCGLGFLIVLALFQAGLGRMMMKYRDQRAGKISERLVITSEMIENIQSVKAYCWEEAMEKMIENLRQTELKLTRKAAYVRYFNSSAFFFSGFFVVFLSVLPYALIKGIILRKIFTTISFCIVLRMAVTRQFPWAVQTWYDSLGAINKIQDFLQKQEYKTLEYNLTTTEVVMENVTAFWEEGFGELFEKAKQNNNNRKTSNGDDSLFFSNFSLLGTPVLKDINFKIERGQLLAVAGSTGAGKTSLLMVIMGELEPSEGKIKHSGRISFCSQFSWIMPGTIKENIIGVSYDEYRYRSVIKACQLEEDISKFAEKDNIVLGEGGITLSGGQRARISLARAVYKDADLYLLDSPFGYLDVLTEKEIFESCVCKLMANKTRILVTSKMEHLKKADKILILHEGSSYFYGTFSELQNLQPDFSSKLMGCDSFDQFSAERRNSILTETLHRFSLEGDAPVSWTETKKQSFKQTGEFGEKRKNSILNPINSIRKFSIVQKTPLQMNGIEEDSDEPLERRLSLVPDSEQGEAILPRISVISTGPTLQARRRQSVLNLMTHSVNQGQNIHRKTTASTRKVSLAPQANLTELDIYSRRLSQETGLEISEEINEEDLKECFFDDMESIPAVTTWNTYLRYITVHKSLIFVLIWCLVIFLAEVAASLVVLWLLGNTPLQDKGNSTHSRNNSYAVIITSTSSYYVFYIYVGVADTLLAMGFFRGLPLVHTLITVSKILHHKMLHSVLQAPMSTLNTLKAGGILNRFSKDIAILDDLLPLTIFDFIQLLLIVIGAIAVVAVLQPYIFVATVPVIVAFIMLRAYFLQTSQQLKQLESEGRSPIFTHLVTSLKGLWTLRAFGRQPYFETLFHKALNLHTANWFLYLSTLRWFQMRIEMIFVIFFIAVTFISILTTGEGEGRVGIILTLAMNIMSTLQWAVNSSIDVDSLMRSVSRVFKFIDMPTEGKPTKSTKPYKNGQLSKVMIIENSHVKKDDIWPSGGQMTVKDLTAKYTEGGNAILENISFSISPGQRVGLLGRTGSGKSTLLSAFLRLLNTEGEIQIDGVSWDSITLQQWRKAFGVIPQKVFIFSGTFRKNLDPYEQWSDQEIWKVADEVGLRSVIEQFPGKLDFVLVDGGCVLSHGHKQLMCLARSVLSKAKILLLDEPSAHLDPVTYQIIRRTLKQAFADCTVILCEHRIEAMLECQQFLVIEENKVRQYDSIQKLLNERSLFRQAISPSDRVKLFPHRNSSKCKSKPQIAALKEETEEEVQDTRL

Structure (SMILES) | EC50 [µM] | % Activity
O=C(Nc1ccccc1-c1cccc(C(F)(F)F)c1)c1c[nH]c2ccccc2c1=O [Compound 278, 4-oxo-N-[2-[3-(trifluoromethyl)phenyl]phenyl]-1H-quinoline-3-carboxamide] | < 10 | ++ (between 25% to 100%)
COc1ccccc1NC(=O)c1c[nH]c2ccccc2c1=O [Compound 80, N-(2-methoxyphenyl)-4-oxo-1H-quinoline-3-carboxamide] | < 10 | ++ (between 25% to 100%)
N#CCc1ccc(-c2ccccc2NC(=O)c2c[nH]c3ccccc3c2=O)cc1 [Compound 333, N-[2-[4-(cyanomethyl)phenyl]phenyl]-4-oxo-1H-quinoline-3-carboxamide] | – | ++ (between 25% to 100%)
O=C(Nc1ccccc1-c1ccc(F)cc1F)c1c[nH]c2ccccc2c1=O [Compound 63, N-[2-(2,4-difluorophenyl)phenyl]-4-oxo-1H-quinoline-3-carboxamide] | < 10 | ++ (between 25% to 100%)
CCOc1cccc(-c2cc(C(C)(C)C)c(O)cc2NC(=O)c2c[nH]c3ccccc3c2=O)c1 [Compound 43, N-[2-(3-ethoxyphenyl)-5-hydroxy-4-tert-butyl-phenyl]-4-oxo-1H-quinoline-3-carboxamide] | < 10 | ++ (between 25% to 100%)
O=C(Nc1cccc(O)c1)c1c[nH]c2ccccc2c1=O [Compound 144, N-(3-hydroxyphenyl)-4-oxo-1H-quinoline-3-carboxamide] | < 10 | ++ (between 25% to 100%)
O=C(Nc1ccc(OC(F)(F)F)cc1)c1c[nH]c2ccccc2c1=O [Compound 176, 4-oxo-N-[4-(trifluoromethoxy)phenyl]-1H-quinoline-3-carboxamide] | < 10 | ++ (between 25% to 100%)
CC(C)c1ccc(-c2ccccc2NC(=O)c2c[nH]c3ccccc3c2=O)cc1 [Compound 432, N-[2-(4-isopropylphenyl)phenyl]-4-oxo-1H-quinoline-3-carboxamide] | < 10 | ++ (between 25% to 100%)
O=C(Nc1ccccc1-c1ccncc1)c1c[nH]c2ccccc2c1=O [Compound 70, 4-oxo-N-[2-(4-pyridyl)phenyl]-1H-quinoline-3-carboxamide] | – | ++ (between 25% to 100%)
CSc1nc2ccccc2c(O)c1C(=O)Nc1ccc2cc[nH]c2c1 [Compound 374, 4-hydroxy-N-(1H-indol-6-yl)-2-methylsulfanyl-quinoline-3-carboxamide] | 25 to 60 | + (<25%)
O=C(Nc1cccc(Cc2ccccc2)c1)c1c[nH]c2ccccc2c1=O [Compound 389, N-(3-benzylphenyl)-4-oxo-1H-quinoline-3-carboxamide] | < 10 | ++ (between 25% to 100%)
CC(C)n1cc(C(=O)Nc2ccccc2)c(=O)c2ccccc21 [Compound 29, 1-isopropyl-4-oxo-N-phenyl-1H-quinoline-3-carboxamide] | 10 to 25 | ++ (between 25% to 100%)
Cn1ccc2ccc(NC(=O)c3c[nH]c4ccccc4c3=O)cc21 [Compound 169, N-(1-methyl-1H-indol-6-yl)-4-oxo-1H-quinoline-3-carboxamide] | 10 to 25 | ++ (between 25% to 100%)
CCOC(=O)c1cc(NC(=O)c2c[nH]c3ccccc3c2=O)cc2[nH]ccc12 [Compound 145, 6-[(4-oxo-1H-quinolin-3-yl)carbonylamino]-1H-indole-4-carboxylic acid ethyl ester] | – | ++ (between 25% to 100%)
CCc1cccc(C(C)CC)c1NC(=O)c1c[nH]c2ccccc2c1=O (centres unmarked) [Compound 322, N-(2-ethyl-6-sec-butyl-phenyl)-4-oxo-1H-quinoline-3-carboxamide] | < 10 | ++ (between 25% to 100%)
CCc1cccc(CC)c1NC(=O)c1c[nH]c2ccccc2c1=O [Compound 325, N-(2,6-diethylphenyl)-4-oxo-1H-quinoline-3-carboxamide] | < 10 | ++ (between 25% to 100%)
CS(=O)(=O)Nc1cc(NC(=O)c2c[nH]c3ccccc3c2=O)cc(C(F)(F)F)c1 [Compound 441, N-[3-methylsulfonylamino-5-(trifluoromethyl)phenyl]-4-oxo-1H-quinoline-3-carboxamide] | – | ++ (between 25% to 100%)
O=C(Nc1cc(C(F)(F)F)cc(C(F)(F)F)c1)c1c[nH]c2ccccc2c1=O [Compound 154, N-[3,5-bis(trifluoromethyl)phenyl]-4-oxo-1H-quinoline-3-carboxamide] | 25 to 60 | + (<25%)
N#Cc1cc(Cl)cc(Cl)c1NC(=O)c1c[nH]c2ccccc2c1=O [Compound 369, N-(2,4-dichloro-6-cyano-phenyl)-4-oxo-1H-quinoline-3-carboxamide] | 10 to 25 | + (<25%)
O=C(Nc1ccc2c(c1)NCCC2)c1c[nH]c2ccccc2c1=O [Compound 299, 4-Oxo-N-(1,2,3,4-tetrahydroquinolin-7-yl)-1H-quinoline-3-carboxamide] | < 10 | ++ (between 25% to 100%)
Nc1cc(NC(=O)c2c[nH]c3ccccc3c2=O)ccc1OC(F)(F)F [Compound 58, N-[3-amino-4-(trifluoromethoxy)phenyl]-4-oxo-1H-quinoline-3-carboxamide] | < 10 | ++ (between 25% to 100%)
O=C(Nc1ccc2ccccc2n1)c1c[nH]c2ccccc2c1=O [Compound 19, 4-oxo-N-(2-quinolyl)-1H-quinoline-3-carboxamide] | 10 to 25 | + (<25%)
CC1(c2cc(F)c(NC(=O)c3c[nH]c4cccc(O)c4c3=O)cc2O)CCCCC1 [Compound 287, N-[2-fluoro-5-hydroxy-4-(1-methylcyclohexyl)-phenyl]-5-hydroxy-4-oxo-1H-quinoline-3-carboxamide] | < 10 | ++ (between 25% to 100%)
CC(C)(C)c1cc2cc[nH]c2cc1NC(=O)c1c[nH]c2ccc(S(=O)(=O)N3CCCC3)cc2c1=O [Compound 274, 4-oxo-6-pyrrolidin-1-ylsulfonyl-N-(5-tert-butyl-1H-indol-6-yl)-1H-quinoline-3-carboxamide] | < 10 | ++ (between 25% to 100%)
COc1ncc(-c2ccccc2NC(=O)c2c[nH]c3ccccc3c2=O)c(OC)n1 [Compound 97, N-[2-(2,4-dimethoxypyrimidin-5-yl)phenyl]-4-oxo-1H-quinoline-3-carboxamide] | < 10 | ++ (between 25% to 100%)

More lines, now with the values ahead:

EC50 [µM] | % Activity | Structure (SMILES)
< 10 | ++ (between 25% to 100%) | CC(C)(C)c1cc(C(F)(F)F)c(NC(=O)c2c[nH]c3ccc(F)cc3c2=O)cc1O [Compound 509, 6-fluoro-N-[5-hydroxy-4-tert-butyl-2-(trifluoromethyl)phenyl]-4-oxo-1H-quinoline-3-carboxamide]
< 10 | ++ (between 25% to 100%) | O=C(Nc1ccc(OC(F)(F)F)c(N2CCCCC2)c1)c1c[nH]c2ccccc2c1=O [Compound 696, 4-oxo-N-[3-(1-piperidyl)-4-(trifluoromethoxy)phenyl]-1H-quinoline-3-carboxamide]
< 10 | ++ (between 25% to 100%) | CC(C)(C)c1cc2cc[nH]c2cc1NC(=O)c1c[nH]c2cc(OC(F)(F)F)ccc2c1=O [Compound 632, 4-oxo-N-(5-tert-butyl-1H-indol-6-yl)-7-(trifluoromethoxy)-1H-quinoline-3-carboxamide]
< 10 | + (<25%) | CCOc1cccc2c(=O)c(C(=O)Nc3ccc(C(C)C)cc3C(F)(F)F)c[nH]c12 [Compound 517, 8-ethoxy-N-[4-isopropyl-2-(trifluoromethyl)phenyl]-4-oxo-1H-quinoline-3-carboxamide]
< 10 | ++ (between 25% to 100%) | Nc1cc(NC(=O)c2c[nH]c3ccccc3c2=O)ccc1Cl [Compound 453, N-(3-amino-4-chloro-phenyl)-4-oxo-1H-quinoline-3-carboxamide]
< 10 | +++ (>100%) | COc1ccc2[nH]cc(C(=O)Nc3cc4[nH]ccc4cc3C(C)(C)C)c(=O)c2c1 [Compound 533, 6-methoxy-4-oxo-N-(5-tert-butyl-1H-indol-6-yl)-1H-quinoline-3-carboxamide]
< 10 | ++ (between 25% to 100%) | O=C(Nc1ccccc1-c1ccccc1)c1c[nH]c2ccccc2c1=O [Compound 461, 4-oxo-N-(2-phenylphenyl)-1H-quinoline-3-carboxamide]
< 10 | ++ (between 25% to 100%) | Cc1ccc2[nH]cc(C(=O)Nc3ccc(N4[C@H](C)CC[C@H]4C)cc3C(F)(F)F)c(=O)c2c1 [Compound 569, N-(4-((2R,5R)-2,5-dimethylpyrrolidin-1-yl)-2-(trifluoromethyl)phenyl)-6-methyl-4-oxo-1,4-dihydroquinoline-3-carboxamide]
< 10 | ++ (between 25% to 100%) | O=C(Nc1ccc2cc(C(F)(F)F)[nH]c2c1)c1c[nH]c2cccc(O)c2c1=O [Compound 693, 5-hydroxy-4-oxo-N-[2-(trifluoromethyl)-1H-indol-6-yl]-1H-quinoline-3-carboxamide]
< 10 | ++ (between 25% to 100%) | COC(=O)c1c(NC(=O)c2c[nH]c3ccccc3c2=O)csc1C(C)(C)C [Compound 690, methyl 4-[(4-oxo-1H-quinolin-3-yl)carbonylamino]-2-tert-butyl-thiophene-3-carboxylate]
< 10 | ++ (between 25% to 100%) | O=C(Nc1ccc(C(F)(F)F)cc1N1CCCCC1)c1c[nH]c2ccccc2c1=O [Compound 514, 4-oxo-N-[2-(1-piperidyl)-4-(trifluoromethyl)phenyl]-1H-quinoline-3-carboxamide]
